Test results taken from patent US4677126A, “Oxa-fenchyl esters and amides of alpha-L-aspartyl-D-phenylglycine” (The Procter & Gamble Company, priority 1986, dated 1987).
Square brackets hold non-standard residues; d marks the D form. Peptide text beside a SMILES is read from it. Phg = N[C@H](C(=O)O)c1ccccc1

Assay: not given
Conditions: literature / prior patents; cited from earlier work

| SMILES | sweetness intensity, times that of sucrose | taste quality |
| --- | --- | --- |
| C[C@@H](NC(=O)[C@@H](N)CC(=O)O)C(=O)NC1C2(C)CCC(C2)C1(C)C (stereo partly drawn) [fenchyl] | 320 times that of sucrose | – |
| COC(=O)C(NC(=O)[C@@H](N)CC(=O)O)C(=O)OC1C2(C)CCC(C2)C1(C)C (stereo partly drawn) [methyl] | 22,200-33,200 times that of sucrose | – |
| C[C@@H](NC(=O)[C@@H](N)CC(=O)O)C(=O)NC1C(C)(C)S(=O)(=O)C1(C)C | 1000 times that of sucrose | – |
| COC(=O)[C@@H](NC(=O)[C@@H](N)CC(=O)O)c1ccccc1 [methyl ester of L-aspartyl-L-phenylglycine] (H-Asp-[Phg]-OMe) | 100-1000 times that of sucrose | quite sweet |
| COC(=O)[C@H](Cc1ccccc1)NC(=O)[C@@H](N)CC(=O)O [aspartame, alpha-L-aspartyl-L-phenylalanine methyl ester] (H-Asp-Phe-OMe) | 150-200 times that of sucrose | approaching that of sucrose |
| C[C@@H](NC(=O)[C@@H](N)CC(=O)O)C(=O)NC(C1CC1)C1CC1 [dicyclopropylcarbinyl] | 1200 times that of sucrose | – |
| COC(=O)[C@@H](Cc1ccccc1)NC(=O)[C@@H](N)CC(=O)O [methyl ester of L-aspartyl-D-phenylalanine] (H-Asp-[dF]-OMe) | – | bitter |
| O=C1NS(=O)(=O)c2ccccc21 [Saccharin] | about 300 times that of sucrose | lingering bitter aftertaste |
| CC1CCC(C)C1NC(=O)[C@@H](C)NC(=O)[C@@H](N)CC(=O)O (stereo partly drawn) [2,5 dimethylcyclopentyl] | 520 times that of sucrose | – |
| CC1CCCC(C)C1NC(=O)[C@@H](C)NC(=O)[C@@H](N)CC(=O)O (stereo partly drawn) [2,6-dimethylcyclohexyl] | 600 times that of sucrose | – |
| C[C@@H](NC(=O)[C@@H](N)CC(=O)O)C(=O)NC1C(C)(C)SC1(C)C [2,2,4,4-tetramethylthietan-3-yl] | 2000 times that of sucrose | – |
| CCOC(=O)C(NC(=O)[C@@H](N)CC(=O)O)C(=O)OC1C2(C)CCC(C2)C1(C)C (stereo partly drawn) [ethyl] | 4200-5400 times that of sucrose | – |

Assay: Sweetness intensity relative to sucrose, taste panel
Assay type: in vivo, human
Conditions: based on informal panel testing
Source text: The sweetness intensity of the esters and amides of the present invention relative to sucrose can be determined according to the following procedure:
Male subjects are chosen at random from a group of about 20 persons who have previously been selected on the basis of proven tasting acuity, i.e., persons who could easily recognize the four basic tastes (sweet, sour, bitter and salty) and who are adept at quantifying their own physiological response numerically. The subjects are asked to taste and expectorate about 10 ml of a test sample (temperature of about 22° C.) having dissolved therein the ester or amide. […] Sweetness intensity of the test sample is recorded by the subject making a mark on the linear scale at a point they consider equal in sweetness among the standard samples; interpolation between standards is encouraged. After completion of the panel, a five point numeric scale is superimposed on the linear scales to obtain numerical data; data is averaged and recorded to the nearest 0.25 unit. Equivalent sucrose sweetness is determined by referring to graphs of (w/v) sucrose concentration in the standard samples versus a linear numeric scale.
Sweetness intensity is calculated by dividing the concentration (w/v) of perceived sweetness by the concentration (w/v) of the ester or amide required to produce that sweetness. […]

| SMILES | Sweetness (× Sucrose) |
| --- | --- |
| CC12CCC(O1)C(C)(C)C2OC(=O)[C@H](NC(=O)[C@@H](N)CC(=O)O)c1ccccc1 (stereo partly drawn) [Example 2, alpha-L-Aspartyl-D-phenylglycine-alpha-7-oxa-fenchyl ester] | 1000 |

Same assay, conditions: based on informal panel testing; isolated diastereomer

| SMILES | Sweetness intensity |
| --- | --- |
| CC12CCC(O1)C(C)(C)C2OC(=O)[C@H](NC(=O)[C@@H](N)CC(=O)O)c1ccccc1 (stereo partly drawn) [Example 2, alpha-L-Aspartyl-D-phenylglycine-alpha-7-oxa-fenchyl ester] | approximately 1000 X |

Assay: not given
Conditions: most carbonated beverages, pH about 2.5 to about 4.8; cited from earlier work

| SMILES | hydrolytic stability in carbonated beverages |
| --- | --- |
| COC(=O)[C@H](Cc1ccccc1)NC(=O)[C@@H](N)CC(=O)O [aspartame, alpha-L-aspartyl-L-phenylalanine methyl ester] (H-Asp-Phe-OMe) | hydrolytically unstable |
